Assay results: patent publication US4594238A (Regents of University of Minnesota, priority 1984, dated 1986)
“Also recorded” adds a separate entry of the source. Read-outs that look alike come from different tables or passages of the source.

What was measured:
[1] = cited from earlier work
[2] = rats; cited from earlier work
[3] = Urinary excretion of free and conjugated DDTC; assay type: in vivo, rats; conditions: rat, urine, ip, 500 mg/kg, NaDDTC 500 mg/kg ip
Description: Intravenous administration was explored in an attempt to deliver larger quantities of free DDTC anion to the likely site of toxicity in the renal tubule; urinary excretion of DDTC was monitored as a means of estimating changes in tubular levels of free DDTC. The standard assay for DDTC anion utilizes a spectrophotometric determination following reaction with cupric ion to form the colored Cu(DDTC)2 complex. Unfortunately, the affinity of cupric ion for sulfur ligands is such that this metal ion will catalyze the decomposition of the DDTC glucuronide and therefore will not discriminate between free and conjugated DDTC. Ferric ion does react selectively with the free ligand, thereby providing a convenient assay for both free and total DDTC in urine.
Excretion of free and conjugated NaDDTC in the urine of rats was measured as follows. NaDDTC was administered in selected doses via intraperitoneal or intravenous injection. Rats were then placed in metabolic cages and urine was collected and analyzed at 30 minute intervals. Urine samples (0.1-5.0 ml) were added to 2 ml of a solution containing ferric nitrate (20 mM) and sodium citrate (200 mM). The dark Fe (DDTC)3 complex was extracted into chloroform (4 ml) by vortexing for 5 minutes. The mixture was chilled, centrifuged for 1 minute, and the chloroform layer separated. To this chloroform solution was added saturated aqueous cupric sulfate (2 ml), and the mixture was vortexed for 5 minutes, chilled, and centrifuged for 1 minute. The chloroform solution was separated and the Cu(DDTC)2absorbance measured at 435 nm. Free DDTC was determined by comparison of absorbance to a standard curve. Total DDTC was determined by addition of 0. 05-1.0 ml of urine to 3 ml of saturated cupric sulfate followed by incubation at 45° for 30 minutes. The resulting Cu(DDTC)2 complex was extracted into chloroform and analyzed as described above. DDTC-glucuronide excretion was determined by subtraction of free from total DDTC.

Rat mammary tumor 13762 = assay: Comparative tumor response to DDP with and without NaDDTC rescue, Example 2; assay type: in vivo, Female F344 (Fischer) rats
Experimental: (§1) Female F344 (Fischer) rates, initial weight 100-150 g, were obtained from the Charles River Breeding Laboratory, Wilmington, MA. They were housed in methacrylate cages and given Purina rat chow and water ad libitum for at least one week. Lean weight of the rats were 150 g at the onset of experiments unless otherwise noted.
(§2) Mammary Tumor 13762 was obtained in the form of an implanted tumor in a female F344 rat. All intravenous injections were carried out under brief ether anesthesia.
Tumor inoculation was carried out as follows: two rats bearing tumors having a mean diameter of 2.5-3.5 cm were sacrificed using ether anesthesia. The tumors were excised immediately, finely minced, combined, and resuspended in 20-40 ml of normal saline. This suspension was filtered through a gauze pad to remove coarse pieces of tissue and the resulting suspension inoculated subcutaneously (0.2-0.5 ml/injection) into the left flank of each rat.

[4] = Protection of rats against DDP toxicity by i.p. NaDDTC (BUN, weight loss, diarrhea, histopathology), Example 1 / Table 1; assay type: in vivo, Male F344 (Fischer) rats; conditions: for Incidence of Diarrhea: DDP […] i.v.; for BUN / Weight Loss: Day 5, DDP […] i.v.
Description: Male F344 (Fischer) rats (average weight, 150 g) were obtained from the Charles River Breeding Laboratory. They were divided into groups of four rats, placed in methacrylate cages, and given National Institute of Health chow for rodents and water ad lib, for 7 days. Average weight of the rats was 180 g (range, 160-200 g) when injected.
Tetraethylthiuram disulfide (disulfiram) was obtained from Sigma Chemical Co., St. Louis MO. […] Trav. Chim. 70:917 (1951); immediately prior to injection, it was dissolved in sterile water at a concentration of 100 mg/ml. Sodium bicarbonate was prepared in sterile water at a concentration of 50 mg/ml. All injections were carried out under brief ether anesthesia.
Otherwise, weight and BUN were determined at 5 days after injection, reportedly the time of maximal observed toxicity. Evidence of gastrointestinal toxicity was obtained qualitatively by noting the presence or absence of diarrhea 3-5 days after injection.
Randomly selected animals were sacrificed at 5 days after injection for study of histopathologic changes in the kidney and to note the presence or absence of hemorrhagic enteritis. Kidneys were removed, placed in Zenker's fixative, embedded in paraffin, sectioned at 6 μm, and stained with hematoxylin and eosin.

[5] = Reduction of toxicity (including bone marrow toxicity) of platinum compounds, Example 4; assay type: in vivo; conditions: platinum compounds of drawing 16, X=OH or H2O
[6] = Comparative nephrotoxicity: low-dose i.v. vs high-dose i.p. NaDDTC rescue after DDP, Example 2; assay type: in vivo, Female F344 (Fischer) rats; conditions: for Kidney sections / Day 5 BUN (mean ±SEM) / Diarrhea / Weight loss on day 5: DDP 6 mg/kg i.v.
Experimental: as §1, §2

Pt/DNA complexes = conditions: cited from earlier work
[7] = thiourea administered prior to the platinum (II); cited from earlier work
[8] = system: thyroid hormone production; conditions: cited from earlier work
[9] = DDP 2 mg/kg i.v., NaDDTC 100 mg/kg i.v.
[10] = DDP 2 mg/kg, DDTC 750 mg/kg ip 2 hours later
[11] = DDP 8 mg/kg with DDTC rescue 750 mg/kg ip
[12] = DDTC 500 mg/kg ip 1/2 hour after DDP, n=4
[13] = DDTC 500 mg/kg ip 1 hour after DDP, n=4
[14] = DDTC 500 mg/kg ip 2 hours after DDP, n=4
[15] = DDTC 750 mg/kg ip 0 hours after DDP, n=12
[16] = DDTC 750 mg/kg ip 3/4 hour after DDP, n=5
[17] = DDTC 750 mg/kg ip 1 hour after DDP, n=16
[18] = DDTC 750 mg/kg ip 2 hours after DDP, n=14
[19] = DDTC 750 mg/kg ip 3 hours after DDP, n=10
[20] = DDTC 750 mg/kg ip 4 hours after DDP, n=7
[21] = DDTC 750 mg/kg ip 6 hours after DDP, n=5
[22] = DDTC 750 mg/kg ip at -1/2 hour (30 minutes before DDP), n=4
[23] = DDTC 750 mg/kg ip, rescue time printed 11/2 hours after DDP, n=15
[24] = NaDDTC administered between 1 and 4 hours after DDP
[25] = NaDDTC immediately after DDP (time=0 hour)
[26] = NaDDTC 100 mg/kg i.v. 2 hours after DDP
[27] = NaDDTC 750 mg/kg i.p. 2 hours after DDP

CCN(CC)C(=S)[S][Na]
Solubility in alcohol ([1]; alcohol): also soluble in alcohol | Solubility in water ([1]; water): highly soluble in water, e.g. in molar quantities | LD50 [2]: at least 1,500 mg/kg | dose excreted at 2 h ([3]; within 2 hours, read-out: Free ligand in urine, of the initial dose): < 0.1% | dose excreted at 2 h ([3]; read-out: Total DDTC excreted by the kidneys within 2 hours, of the dose given): 18 to 20%

CCN(CC)C(=S)[S-].[Na+] [DDTC, sodium diethyldithiocarbamate]
Adverse effects on tumor response to DDP (Rat mammary tumor 13762; [9]): no adverse effects | Initial response, control vs intravenous rescue group (Rat mammary tumor 13762; [9]): Initial response was identical in both groups | Rats with relapse between days 25 and 30 (Rat mammary tumor 13762; DDP 2 mg/kg i.v., NaDDTC 100 mg/kg i.v. 2 hours after DDP, n=8): 2/8 | Other (non-relapsed) rats through day 50 (Rat mammary tumor 13762; DDP 2 mg/kg i.v., NaDDTC 100 mg/kg i.v., n=8): essentially free of tumor through day 50 | Minimum tumor diameter, day 23 (Rat mammary tumor 13762; DDP 2 mg/kg i.v., NaDDTC 750 mg/kg i.p. 2 hours after DDP, n=11): 1.3 cm | Rats with relapse by day 30 (Rat mammary tumor 13762; DDP 2 mg/kg i.v., NaDDTC 750 mg/kg i.p., n=11): 9/11 | Mean tumor diameter by day 30 (Rat mammary tumor 13762; DDP 2 mg/kg i.v., NaDDTC 750 mg/kg i.p., relapsed rats): 2.2 cm | Disappearance of tumor (Rat mammary tumor 13762; [10]): disappearance of tumor was not observed | Initial response versus unrescued group (Rat mammary tumor 13762; [10]): identical to that of the unrescued group | Mean minimum tumor diameter at day 21 (Rat mammary tumor 13762; [10]): 1.2 cm | Mean tumor diameter at day 30 (Rat mammary tumor 13762; [10]): 3.0 cm | Relapse and subsequent tumor growth versus no rescue (Rat mammary tumor 13762; [10]): earlier onset of relapse and more rapid subsequent tumor growth | Deaths (Rat mammary tumor 13762; [11]): no deaths | Tumor-free rats by day 28 (Rat mammary tumor 13762; [11]): 1/8 | Initial tumor response with or without NaDDTC rescue (Rat mammary tumor 13762; DDP 2, 4, and 8 mg/kg, NaDDTC 750 mg/kg ip): identical with or without NaDDTC rescue | Tumor response at DDP 4 and 8 mg/kg versus 2 mg/kg (Rat mammary tumor 13762; DDP 4 and 8 mg/kg, DDTC rescue 750 mg/kg ip): Qualitatively similar results | Local recurrence and tumor growth (Rat mammary tumor 13762; NaDDTC 750 mg/kg ip): locally recurring tumors recur earlier and grow more rapidly; also recorded: local recurrence commenced earlier and tumors grew more rapidly | Effect of ip rescue on initial tumor response (Rat mammary tumor 13762; ip route of rescue): does not seem to have any significant adverse effect upon initial tumor response | Incidence of Diarrhea ([4]; DDTC 750 mg/kg ip 0 hours after DDP): 0/6 | Incidence of Diarrhea ([4]; DDTC 750 mg/kg ip 3/4 hour after DDP): 0/5 | Incidence of Diarrhea ([4]; DDTC 750 mg/kg ip 1 hour after DDP): 0/8 | Incidence of Diarrhea ([4]; DDTC 750 mg/kg ip 2 hours after DDP): 0/14 | Incidence of Diarrhea ([4]; DDTC 750 mg/kg ip 6 hours after DDP): 2/5 | Incidence of Diarrhea ([4]; DDTC 750 mg/kg ip 6 hours after DDP, listed as NaDDTC): two of the five | BUN [4, 12]: 152 ± 20 mg/dL | Weight Loss [4, 12]: 4 ± 2% | BUN [4, 13]: 90 ± 5 mg/dL | Weight Loss [4, 13]: 4 ± 1% | BUN [4, 14]: 72 ± 11 mg/dL | Weight Loss [4, 14]: 2 ± 2% | BUN [4, 15]: 214 ± 21 mg/dL | Weight Loss [4, 15]: 9 ± 1% | BUN [4, 16]: 56 ± 9 mg/dL | Weight Loss [4, 16]: 8 ± 2% | BUN [4, 17]: 63 ± 4 mg/dL | Weight Loss [4, 17]: 13 ± 1% | BUN [4, 18]: 95 ± 9 mg/dL | Weight Loss [4, 18]: 15 ± 1% | BUN [4, 19]: 77 ± 8 mg/dL | Weight Loss [4, 19]: 10 ± 1% | BUN [4, 20]: 106 ± 8 mg/dL | Weight Loss [4, 20]: 14 ± 1% | BUN [4, 21]: 209 ± 44 mg/dL | Weight Loss [4, 21]: 18 ± 2% | BUN [4, 22]: 418 ± 43 mg/dL | Weight Loss [4, 22]: 18 ± 1% | BUN [4, 23]: 62 ± 3 mg/dL | Weight Loss [4, 23]: 5 ± 1% | Reduction in BUN or weight loss ([4]; NaDDTC 6 hours after DDP): failed to demonstrate significant reduction either in BUN or weight loss | Rescue efficacy ([4]; NaDDTC 6 hours after DDP): only minimal rescue efficacy (if any) | Diarrhea [4, 24]: Diarrhea was not observed | Kidney sections, histopathology [4, 24]: barely discernible pale band of mild tubule degeneration in the outer zone of the outer medullary stripe | Necropsy, small intestine [4, 24]: grossly normal small intestine | Reduction in BUN and weight loss [4, 24]: Marked reduction | Decrease in weight loss [4, 25]: significant decrease in weight loss | Reduction of BUN levels [4, 25]: without reduction of BUN levels | Protection from nephrotoxic effects of DDP ([4]; NaDDTC ip 500-750 mg/kg, DDP doses as high as 8 mg/kg): would afford protection from the nephrotoxic effects of DDP | Reducing the toxicity (including bone marrow toxicity) of platinum compounds [5]: effective in reducing the toxicity (including bone marrow toxicity) | Kidney sections ([6]; NaDDTC 100 mg/kg i.v.): mild hydropic changes with occasional evidence of degeneration | Day 5 BUN (mean ±SEM) [6, 26]: 43±5 milligrams per deciliter | Diarrhea [6, 26]: not observed | Weight loss on day 5 [6, 26]: 14% | Kidney sections ([6]; NaDDTC 750 mg/kg i.p.): mild hydropic changes with occasional evidence of degeneration | Day 5 BUN (mean ±SEM) [6, 27]: 73±4 milligrams per deciliter | Diarrhea [6, 27]: not observed | Weight loss on day 5 [6, 27]: 9% | Inhibition of platinum-induced nephrotoxicity ([6]; administered intravenously): effectively inhibit platinum-induced nephrotoxicity without deleterious effects on tumor response | Protection against nephrotoxicity, intravenous vs intraperitoneal ([6]; low-dose i.v. vs. high-dose i.p. DDTC rescue): essentially equivalent for both routes

NC(N)=S [thiourea]
Reversal of Pt/DNA complexing (Pt/DNA complexes): does reverse Pt/DNA complexing | Efficacy of platinum (II) [7]: Decreased efficacy of platinum (II) | Inhibition of thyroid hormone production [8]: reported to inhibit thyroid hormone production
